US10442763B2, “EBNA1 inhibitors and methods using same” (priority 2015, dated 2019)

Target: T1, His-EBNA1 (DNA binding domain of EBNA1, amino acids 459-607) (Epstein-Barr virus, UniProt P03211)
T1 construct: made in house; host or cells: E. coli
Experiment: Inhibition of 5'-biotin-oPL4624 binding to His-EBNA1 using Alpha Screen technology
Procedure: Inhibition of 5′-Biotin-oPL4624 Binding to his-EBNA1 Using Alpha Screen Technology
Assays were performed using the DNA binding domain of EBNA1 (amino acids 459-607), which was His-tagged (His-EBNA1) and the self-complementary biotinylated (bt) oligonucleotide with the sequence 5′-bt-[…]-ATGCTACCC-3′ (bt-oPL4624; or 5′-bt-SEQ ID NO: 1). The protein was expressed in E. coli and purified according to Barwell, et al., 1995, J Biol Chem. 270:20556-9.). The bt-oPL4624 oligonucleotide was purchased from Integrated DNA Technologies, Inc (IDT). AlphaScreen donor, acceptor beads and white, opaque 384-well assay plates were purchased from PerkinElmer, Inc.
Assays contained 15 nM His-EBNA1, 0.2 nM bt-oPL4624, 5 μg/mL AlphaScreen streptavidin donor beads and nickel chelate acceptor beads, and a series of concentrations of test compound ranging from 3.2 nM to 100 μM in a total volume of 40 μL assay buffer (25 mM Tris, pH 7.2, 160 mM NaCl, 1 mM MgCl2). His-EBNA1 (30 nM) and bt-oPL4624 (0.4 nM) were preincubated with 10 μg/mL nickel chelate AlphaScreen acceptor bead, or 10 μg/mL streptavidin AlphaScreen donor bead, respectively, for 30 minutes at room temperature in assay buffer. Twenty microliters of His-EBNA1/acceptor bead mix and bt-oPL4624/donor bead mix were transferred to assay plates containing 0.4 μL of 1:3 serial dilutions of test compounds previously prepared in DMSO at concentrations ranging from 0.32 μM to 10 mM. Non-specific binding was determined with 5 μg/mL AlphaScreen acceptor bead in the absence of His-EBNA1. After 2 hr incubation at room temperature, the AlphaScreen signal was measured on the Envision plate reader (PerkinElmer, Inc.) at 680 nm excitation and 570 nm emission. Inhibition values at each concentration of test compound were determined by setting 100% equal to raw data values in the absence of EBNA1 and 0% equal to the raw data values in the presence of EBNA1. Nonlinear regression fits of the inhibition values to a one-site dose-response equation were performed using GraphPad Prism.

T1 sequence (P03211 459-607): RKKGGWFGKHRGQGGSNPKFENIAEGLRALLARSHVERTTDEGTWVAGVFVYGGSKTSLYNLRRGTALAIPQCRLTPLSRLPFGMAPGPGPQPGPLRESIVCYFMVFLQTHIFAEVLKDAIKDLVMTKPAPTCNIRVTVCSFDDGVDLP

Row | SMILES | IC50
1 | O=C(O)c1cccc(C#Cc2ccc3c(ccn3CCN3CCOCC3)c2)c1-c1ccc2cc[nH]c2c1 [Entry 13] | 10 to 100 µM
2 | CCN1CCN(Cc2ccc(C#Cc3cccc(C(=O)O)c3-c3ccc4cc[nH]c4c3)cc2)CC1 [Entry 146] | 10 to 100 µM
3 | O=C(O)c1cccc(C#Cc2ccccc2)c1-c1ccc2cccnc2n1 [Entry 117] | 10 to 100 µM
4 | O=C(O)c1cccc(C#Cc2ccccc2)c1-c1ccc2scnc2c1 [Entry 111] | 10 to 100 µM
5 | O=C(O)c1cccc(C#Cc2cccc(CN3CCc4ccccc4C3)c2)c1-c1ccc2cc[nH]c2c1 [Entry 102] | 1 to 10 µM
6 | CN(C)CCn1ccc2cc(C#Cc3cccc(C(=O)O)c3-c3ccc4cc[nH]c4c3)cnc21 [Entry 4] | 1 to 10 µM
7 | O=C(O)c1cccc(C#Cc2ccc3c(ccn3CC3CCOCC3)c2)c1-c1ccc2cc[nH]c2c1 [Entry 18] | 1 to 10 µM
8 | CC(C)S(=O)(=O)N1CCc2ccc(C#Cc3cccc(C(=O)O)c3-c3ccc4cc[nH]c4c3)cc2C1 [Entry 74] | 1 to 10 µM
9 | O=C(O)c1cccc(C#Cc2ccc(COc3cccc(Cl)c3)cc2)c1-c1ccc2cc[nH]c2c1 [Entry 91] | 1 to 10 µM
10 | CS(=O)(=O)N1CCN(Cc2c[nH]c3cc(C#Cc4cccc(C(=O)O)c4-c4ccc5cc[nH]c5c4)ccc23)CC1 [Entry 31] | 1 to 10 µM
11 | CC(C)(O)c1ccc(C#Cc2cccc(C(=O)O)c2-c2ccc3cc[nH]c3c2)cc1 [Entry 120] | 1 to 10 µM
12 | O=C(O)c1cccc(C#Cc2ccc(CN3CCC(O)CC3)cc2)c1-c1ccc2cc[nH]c2c1 [Entry 154] | 10 to 100 µM
13 | NS(=O)(=O)c1cccc(C#Cc2cccc(C(=O)O)c2-c2ccc3cc[nH]c3c2)c1 [Entry 122] | 10 to 100 µM
14 | CS(=O)(=O)N1CCC2(CC1)CN(Cc1ccc(C#Cc3cccc(C(=O)O)c3-c3ccc4cc[nH]c4c3)cc1)C2 [Entry 192] | 10 to 100 µM
15 | CC(=O)N1CCc2cc(C#Cc3cccc(C(=O)O)c3-c3ccc4cc[nH]c4c3)ccc2C1 [Entry 78] | 1 to 10 µM
16 | CS(=O)(=O)N1CCN(Cc2ccc(C#Cc3cccc(C(=O)O)c3-c3cnc4[nH]ccc4c3)cc2)CC1 [Entry 180] | 1 to 10 µM
17 | O=C(O)c1cccc(C#Cc2ccc(C(=O)N3CCC(N4CCOCC4)CC3)c(O)c2)c1-c1ccc2cc[nH]c2c1 [Entry 50] | 1 to 10 µM
18 | CCOC(=O)N1CCN(Cc2cccc(C#Cc3cccc(C(=O)O)c3-c3ccc4cc[nH]c4c3)c2)CC1 [Entry 104] | 10 to 100 µM
19 | O=C(O)c1cccc(C#Cc2ccc(-c3cnco3)cc2)c1-c1ccc2cc[nH]c2c1 [Entry 43] | 1 to 10 µM
20 | O=C1CCC(NC(=O)c2ccc(C#Cc3cccc(C(=O)O)c3-c3ccc4cc[nH]c4c3)cc2)CC1 [Entry 199] | < 1 µM
21 | COCCN(C)Cc1ccc(C#Cc2cccc(C(=O)O)c2-c2ccc3cc[nH]c3c2)cc1 [Entry 157] | 10 to 100 µM
22 | O=C(O)c1cccc(C#Cc2cnc3c(ccn3CCN3CCOCC3)c2)c1-c1ccc2cc[nH]c2c1 [Entry 8] | 1 to 10 µM

Row | SMILES | IC50
23 | CS(=O)(=O)Nc1cccc(CN2CCc3ccc(C#Cc4cccc(C(=O)O)c4-c4ccc5cc[nH]c5c4)cc3C2)c1 [Entry 67] | 1 to 10 µM
24 | NC(=O)c1ccc(OCc2ccc(C#Cc3cccc(C(=O)O)c3-c3ccc4cc[nH]c4c3)cc2)cc1 [Entry 86] | 1 to 10 µM
25 | O=C(O)c1cccc(C#Cc2ccccc2)c1-c1cc2cc[nH]c2cc1F [Entry 114] | 10 to 100 µM
26 | Nc1nc(-c2cccc(C#Cc3cccc(C(=O)O)c3-c3ccc4cc[nH]c4c3)c2)cs1 [Entry 125] | 1 to 10 µM
27 | O=C(O)c1cccc(C#Cc2ccccc2)c1-c1ccc2ncsc2c1 [Entry 110] | 10 to 100 µM
28 | CCCNC(=O)c1cc2ccc(C#Cc3cccc(C(=O)O)c3-c3ccc4cc[nH]c4c3)cc2[nH]1 [Entry 101] | 1 to 10 µM
29 | O=C(Nc1ccc(N2CCS(=O)(=O)CC2)cc1)c1cccc(C#Cc2cccc(C(=O)O)c2-c2ccc3cc[nH]c3c2)c1 [Entry 138] | 1 to 10 µM
30 | O=C(O)c1cccc(C#Cc2ccccc2)c1-c1ccc2cc[nH]c2n1 [Entry 118] | 100 to 1000 µM
31 | O=C(O)c1cccc(C#Cc2ccc(CN3CCCC(F)(F)C3)cc2)c1-c1ccc2cc[nH]c2c1 [Entry 159] | 1 to 10 µM
32 | O=C(O)c1cccc(C#Cc2ccc(C(=O)N3CCOCC3)c(O)c2)c1-c1ccc2cc[nH]c2c1 [Entry 46] | 10 to 100 µM
33 | Nc1ncc(-c2ccc(C#Cc3cccc(C(=O)O)c3-c3ccc4cc[nH]c4c3)cc2)o1 [Entry 130] | 1 to 10 µM
34 | O=C(O)c1cccc(C#Cc2ccc3[nH]c(CN4CCS(=O)(=O)CC4)nc(=O)c3c2)c1-c1ccc2cc[nH]c2c1 [Entry 134] | 1 to 10 µM
35 | Nc1nc2c(s1)C[C@@H](NC(=O)c1ccc(C#Cc3cccc(C(=O)O)c3-c3ccc4cc[nH]c4c3)cc1)CC2 [Entry 200] | 1 to 10 µM
36 | CS(=O)(=O)N1CCC(CN2Cc3ccc(C#Cc4cccc(C(=O)O)c4-c4ccc5cc[nH]c5c4)cc3C2)CC1 [Entry 72] | 10 to 100 µM
37 | O=C(O)c1cccc(C#Cc2ccc(OC3CCS(=O)(=O)CC3)cc2)c1-c1ccc2cc[nH]c2c1 [Entry 144] | 10 to 100 µM
38 | CN(C)S(=O)(=O)NC(=O)c1cccc(C#Cc2ccc(COC3CCOCC3)cc2)c1-c1ccc2cc[nH]c2c1 [Entry 194] | 1 to 10 µM
39 | CS(=O)(=O)N1CCc2cc(C#Cc3cccc(C(=O)O)c3-c3ccc4cc[nH]c4c3)ccc2C1 [Entry 76] | 1 to 10 µM
40 | O=C(O)c1cccc(C#Cc2cccc(-c3cnco3)c2)c1-c1ccc2cc[nH]c2c1 [Entry 107] | 1 to 10 µM
41 | O=C(O)c1cccc(C#Cc2ccc(OC3CCS(=O)(=O)CC3)cc2)c1-c1ccc2[nH]ccc2c1 [Entry 184] | 1 to 10 µM
42 | COC1CCN(Cc2ccc(C#Cc3cccc(C(=O)O)c3-c3cnc4[nH]ccc4c3)cc2)CC1 [Entry 177] | 100 to 1000 µM
43 | O=C(O)c1cccc(C#Cc2ccc(C(=O)N3CCC(F)(F)CC3)c(O)c2)c1-c1ccc2cc[nH]c2c1 [Entry 51] | 1 to 10 µM
44 | O=C(O)c1cccc(C#Cc2ccc(COc3cccnc3)cc2)c1-c1ccc2cc[nH]c2c1 [Entry 90] | 1 to 10 µM

Row | SMILES | IC50
45 | CS(=O)(=O)N1CCN(Cc2ccc(C#Cc3cccc(C(=O)O)c3-c3ccc4cc[nH]c4c3)cc2)CC1 [Entry 161] | 10 to 100 µM
46 | O=C(O)c1cccc(C#Cc2ccc(CN3CCS(=O)(=O)CC3)cc2)c1-c1ccc2cc[nH]c2c1 [Entry 148] | 1 to 10 µM
47 | O=C(O)c1cccc(C#Cc2ccc(COc3ccccc3C(F)(F)F)cc2)c1-c1ccc2cc[nH]c2c1 [Entry 93] | 1 to 10 µM
48 | O=C(O)c1cccc(C#Cc2ccc(OCCC3CCOCC3)cc2)c1-c1ccc2cc[nH]c2c1 [Entry 143] | 1 to 10 µM
49 | O=C(O)c1cccc(C#Cc2ccc3c(ccn3CCCN3CCOCC3)c2)c1-c1ccc2cc[nH]c2c1 [Entry 14] | 10 to 100 µM
50 | C(#Cc1cccc(-c2nnn[nH]2)c1-c1ccc2cc[nH]c2c1)c1ccc(COC2CCOCC2)cc1 [Entry 196] | 1 to 10 µM
51 | CC(C)S(=O)(=O)N1Cc2ccc(C#Cc3cccc(C(=O)O)c3-c3ccc4cc[nH]c4c3)cc2C1 [Entry 57] | 1 to 10 µM
52 | CCC(=O)N1CCc2cc(C#Cc3cccc(C(=O)O)c3-c3ccc4cc[nH]c4c3)ccc2C1 [Entry 79] | 1 to 10 µM
53 | Nc1cc(-c2cccc(C#Cc3cccc(C(=O)O)c3-c3ccc4cc[nH]c4c3)c2)n[nH]1 [Entry 106] | 1 to 10 µM
54 | O=C(O)c1cccc(C#Cc2ccc3c(CN4CCS(=O)(=O)CC4)c[nH]c3c2)c1-c1ccc2cc[nH]c2c1 [Entry 32] | 1 to 10 µM
55 | COC1CCN(Cc2nc(=O)c3cc(C#Cc4cccc(C(=O)O)c4-c4ccc5cc[nH]c5c4)ccc3[nH]2)CC1 [Entry 133] | 10 to 100 µM
56 | CS(=O)(=O)N1CC(CN2CCc3ccc(C#Cc4cccc(C(=O)O)c4-c4ccc5cc[nH]c5c4)cc3C2)C1 [Entry 65] | 10 to 100 µM
57 | O=C(O)c1cccc(C#Cc2cnc3c(c2)CCCN3)c1-c1ccc2cc[nH]c2c1 [Entry 16] | 1 to 10 µM
58 | O=C(O)c1cccc(C#Cc2cccc(-c3nn[nH]n3)c2)c1-c1ccc2cc[nH]c2c1 [Entry 42] | < 1 µM
59 | Nc1nc2c(s1)C[C@@H](NCc1ccc(C#Cc3cccc(C(=O)O)c3-c3ccc4cc[nH]c4c3)cc1)CC2 [Entry 174] | 1 to 10 µM
60 | CC(C)S(=O)(=O)N1CCN(Cc2ccc(C#Cc3cccc(C(=O)O)c3-c3ccc4cc[nH]c4c3)cc2)CC1 [Entry 191] | 1 to 10 µM
61 | CS(=O)(=O)N1CCC(Cn2ccc3cc(C#Cc4cccc(C(=O)O)c4-c4ccc5cc[nH]c5c4)cnc32)CC1 [Entry 20] | 1 to 10 µM
62 | O=C(O)c1cccc(C#Cc2ccc(CN3CC(O)C3)cc2)c1-c1ccc2cc[nH]c2c1 [Entry 153] | 10 to 100 µM
63 | CS(=O)(=O)N1CCN(Cc2ccc(C#Cc3cccc(C(=O)O)c3-c3ccc4[nH]ccc4c3)cc2)CC1 [Entry 179] | 10 to 100 µM
64 | O=C(O)c1cccc(C#Cc2cnc3c(ccn3CCN3CCS(=O)(=O)CC3)c2)c1-c1ccc2cc[nH]c2c1 [Entry 12] | 10 to 100 µM
